Measurements published in patent publication US20090048112A1, “Novel Herbicides” (SYNGENTA LIMITED, priority 2005, published 2009).

Tests used:
Format in all cases: in vivo
[1] = system: Monocotyledonous and dicotyledonous test plants; assay: Example B1: herbicidal action prior to emergence (pre-emergence), 500 g/ha; conditions: 13 days after application, 0 = no damage, 100 = plants completely dead; for ALOMY herbicidal effect (visual assessment, percentage scale): Alopecurus myosuroides (slender foxtail); for AMARE herbicidal effect (visual assessment, percentage scale): Amaranthus retroflexus (redroot pigweed); for ECHCG herbicidal effect (visual assessment, percentage scale): Echinochloa crus-galli (barnyard grass); for STEME herbicidal effect (visual assessment, percentage scale): Stellaria media (chickweed)
Description: (§1) Monocotyledonous and dicotyledonous test plants were sown in seed trays in standard compost. The trays were watered twice daily or as required. The chemicals were applied by track sprayer at the soil surface. The application was carried out with an aqueous suspension of the test substances, prepared as a formulation of 50% acetone in water with 0.5% Tween 20™ (CAS RN 9005-64-5), to achieve a field equivalent of 1000 l/ha. The application rate of the test substances was 500 g/ha. A visual assessment of the herbicidal effect was made at 13 days after application. The following percentage scale was used for assessment: 0, 5, 10, 20, 30, 40, 50, 60, 70, 80, 90, 95, 100 (where 0 is no damage to plants and 100 is plants are completely dead).

[2] = system: Alopecurus myosuroides (slender foxtail); assay: Example B2: herbicidal action post emergence, 500 g/ha; conditions: applied to the foliage, 13 days after application, 0 is no damage to plants, 100 is plants completely dead
Description: as §1, with “standard compost and were grown for eight days.” for “standard compost.”, “sprayer to” for “sprayer at”, “the foliage.” for “the soil surface.”, “(where O” for “(where 0”

[3] = system: Amaranthus retroflexus (redroot pigweed); assay: as above; conditions: applied to the foliage, 13 days after application, 0 is no damage to plants, 100 is plants completely dead
Description: as §1, with “standard compost and were grown for eight days.” for “standard compost.”, “sprayer to” for “sprayer at”, “the foliage.” for “the soil surface.”, “(where O” for “(where 0”

[4] = system: Echinochloa crus-galli (barnyard grass); assay: as above; conditions: applied to the foliage, 13 days after application, 0 is no damage to plants, 100 is plants completely dead
Description: as §1, with “standard compost and were grown for eight days.” for “standard compost.”, “sprayer to” for “sprayer at”, “the foliage.” for “the soil surface.”, “(where O” for “(where 0”

[5] = system: Stellaria media (chickweed); assay: as above; conditions: applied to the foliage, 13 days after application, 0 is no damage to plants, 100 is plants completely dead
Description: as §1, with “standard compost and were grown for eight days.” for “standard compost.”, “sprayer to” for “sprayer at”, “the foliage.” for “the soil surface.”, “(where O” for “(where 0”

[6] = system: Monocotyledonous and dicotyledonous test plants; assay: Example B3: herbicidal action prior to emergence (pre-emergence), 96-cell seed trays, 1000 g/ha; set-up: key: 0 is no damage to plant; 5 is total damage to plant; conditions: 9 days after application
Description: Monocotyledonous and dicotyledonous test plants were sown in sterilised standard soil in seed trays each with 96 cells. The seed trays were stored under controlled conditions in a climatic chamber for one day (cultivation at 23° C. during the day and 17° C. at night; 13 hours of light; 50-60% humidity). The chemicals were applied to the soil surface. The application was carried out with an aqueous suspension of the test substances, prepared as a formulation in water with 10% dimethyl sulfoxide (CAS RN 67-68-5), to achieve a field equivalent of 1000 l/ha. The application rate of the test substances was 1000 g/ha. The plants were grown on in the climatic chamber for 9 days (cultivation at 24° C. during the day and 19° C. at night; 13 hours of light; 50-60% humidity). A visual assessment of the herbicidal effect was made at 9 days after application. The following scale was used for assessment: 0, 1, 2, 3, 4 and 5 (where 0 is no damage to plant and 5 is total damage to plant).

| SMILES | ALOMY herbicidal effect (visual assessment, percentage scale) [1] | AMARE herbicidal effect (visual assessment, percentage scale) [1] | ECHCG herbicidal effect (visual assessment, percentage scale) [1] | STEME herbicidal effect (visual assessment, percentage scale) [1] | ALOMY, visual assessment of the herbicidal effect [2] | AMARE, visual assessment of the herbicidal effect [3] | ECHCG, visual assessment of the herbicidal effect [4] | STEME, visual assessment of the herbicidal effect [5] | AGSTE herbicidal effect (visual assessment, scale 0-5) ([6]; Agrostis tenius (Colonial bentgrass)) | AMARE herbicidal effect (visual assessment, scale 0-5) ([6]; Amaranthus retroflexus (redroot pigweed)) | DIGSA herbicidal effect (visual assessment, scale 0-5) ([6]; Digitaria sanguinalis (hairy finger-grass)) | POATR herbicidal effect (visual assessment, scale 0-5) ([6]; Poa trivialis (rough blue grass)) | SETIT herbicidal effect (visual assessment, scale 0-5) ([6]; Setaria italica (foxtail millet)) |
| --- | --- | --- | --- | --- | --- | --- | --- | --- | --- | --- | --- | --- | --- |
| Cn1nc(C(F)(F)F)c(CSc2ncc(Br)s2)c1OCC(F)(F)F [Compound No. 1.001, 5-bromo-2-[1-methyl-5-(2,2,2-trifluoroethoxy)-3-trifluoromethyl-1H-pyrazol-4-ylmethylsulfanyl]-thiazole] | 90% | 90% | 95% | 60% | 80% | 80% | 60% | 80% |  |  |  |  |  |
| CCOc1c(C[S+]([O-])c2ncc(Br)s2)c(C(F)(F)F)nn1C (racemic) [1.022] | 95% | 100% | 95% | 90% | 60% | 70% | 80% | 80% |  |  |  |  |  |
| Cn1nc(C(F)(F)F)c(C(F)(F)S(=O)(=O)c2ncc(Cl)s2)c1OCC(F)(F)F [Compound No. 1.037] | 60% | 100% | 95% | 95% | 90% | 95% | 20% | 70% |  |  |  |  |  |
| Cn1nc(C(F)(F)F)c(CSc2ncc(Cl)s2)c1OCC(F)(F)F [Compound No. 1.013] | 95% | 95% | 80% | 95% | 60% | 60% | 50% | 80% |  |  |  |  |  |
| Cn1nc(C(F)(F)F)c(CS(=O)(=O)c2ncc(Br)s2)c1OCC(F)F [1.026] | 60% | 90% | 95% | 0% | 70% | 60% | 70% | 0% |  |  |  |  |  |
| Cn1nc(C(F)(F)F)c(C[S+]([O-])c2ncc(Br)s2)c1Cl (racemic) [1.005] | 95% | 100% | 95% | 60% | 80% | 80% | 80% | 70% |  |  |  |  |  |
| Cn1nc(C(F)(F)F)c(C[S+]([O-])c2ncc(Cl)s2)c1OC(F)F (racemic) [1.057] | 90% | 95% | 95% | 80% | 90% | 100% | 80% | 90% |  |  |  |  |  |
| Cc1cnc([S+]([O-])Cc2c(C(F)(F)F)nn(C)c2OCC(F)(F)F)s1 (racemic) [Compound 1.074] | 70% | 95% | 0% | 80% |  |  |  |  | 5 | 3 | 5 | 5 | 4 |
| Cn1nc(C(F)(F)F)c(CSc2ncc([N+](=O)[O-])s2)c1OCC(F)(F)F [Compound No. 1.061] | 80% | 100% | 95% | 95% | 40% | 40% | 80% | 40% |  |  |  |  |  |
| Cn1nc(C(F)(F)F)c(CS(=O)(=O)c2ncc(Br)s2)c1OCC(F)(F)F [Compound No. 1.003, 5-bromo-2-[1-methyl-5-(2,2,2-trifluoroethoxy)-3-trifluoromethyl-1H-pyrazol-4-ylmethanesulfonyl]-thiazole] | 95% | 95% | 95% | 70% | 80% |  | 90% | 10% |  |  |  |  |  |
| Cn1nc(C(F)(F)F)c(CS(=O)(=O)c2ncc(Cl)s2)c1OC(F)F [1.058] | 30% | 100% | 95% | 10% | 60% | 80% | 70% | 0% |  |  |  |  |  |
| Cn1nc(C(F)(F)F)c(CSc2ncc(Cl)s2)c1OC(F)F [Compound No. 1.056] | 90% | 95% | 95% | 90% | 95% | 70% | 70% | 80% |  |  |  |  |  |
| Cn1nc(C(F)(F)F)c(C[S+]([O-])c2ncc(Cl)s2)c1Cl (racemic) [1.017] | 95% | 95% | 95% | 95% | 70% | 70% | 60% | 70% |  |  |  |  |  |
| COCCOc1c(CS(=O)(=O)c2ncc(Cl)s2)c(C(F)(F)F)nn1C [1.052] | 80% | 100% | 95% | 90% | 80% | 50% | 70% | 10% |  |  |  |  |  |
| Cn1nc(C(F)(F)F)c(CSc2ncc(Br)s2)c1Cl [Compound No. 1.004, 5-bromo-2-(5-chloro-1-methyl-3-trifluoromethyl-1H-pyrazol-4-ylmethylsulfanyl)-thiazole] | 95% | 95% | 95% | 60% | 80% | 70% | 90% | 60% |  |  |  |  |  |
